According to PMC9687610, “Adenosine-Mimicking Derivatives of 3-Aminopyrazine-2-Carboxamide: Towards Inhibitors of Prolyl-tRNA Synthetase with Antimycobacterial Activity” (Biomolecules, 2022):
pIC50: −log10 of the molar value. Values after ≈ are worked out from the molar mass of the structure shown. Read-outs that look alike come from different tables or passages of the source.

Columns and labels:
[1] = test system: Candida albicans CCM 8320 (ATCC 24433); assay: Antifungal microdilution broth (EUCAST), CA; assay type: cell-based; settings: Candida albicans
[2] = test system: Candida krusei CCM 8271 (ATCC 6258); assay: Antifungal microdilution broth (EUCAST), CK; assay type: cell-based; settings: Pichia kudriavzevii
[3] = test system: Candida parapsilosis CCM 8260 (ATCC 22019); assay: Antifungal microdilution broth (EUCAST), CP; assay type: cell-based; settings: Lodderomyces parapsilosis
[4] = test system: Candida tropicalis CCM 8264 (ATCC 750); assay: Antifungal microdilution broth (EUCAST), CT; assay type: cell-based; settings: Candida tropicalis
[5] = test system: Aspergillus fumigatus ATCC 204305; assay: Antifungal microdilution broth (EUCAST), AF; assay type: cell-based; settings: Aspergillus fumigatus, ATCC204305
[6] = test system: Aspergillus flavus CCM 8363; assay: Antifungal microdilution broth (EUCAST), AFla; assay type: cell-based; settings: Aspergillus flavus, CCM8363
[7] = test system: Lichtheimia corymbifera CCM 8077; assay: Antifungal microdilution broth (EUCAST), LC; assay type: cell-based; settings: Lichtheimia corymbifera, CCM8077
[8] = test system: Trichophyton interdigitale CCM 8377 (ATCC 9533); assay: Antifungal microdilution broth (EUCAST), TI; assay type: cell-based; settings: Trichophyton interdigitale
[9] = test system: Mycobacterium tuberculosis H37Ra ITM-M006710 (ATCC 9431); assay: Microplate Alamar Blue Assay (MABA), Mtb H37Ra; assay type: cell-based; settings: Mycobacterium tuberculosis, 120 h, pH 6.6, MABA, Middlebrook 7H9 broth pH 6.6, resazurin after 120 h; read-out: Mtb H37Ra MIC
[10] = test system: Mycobacterium smegmatis DSM 43465 (ATCC 607); assay: Microplate Alamar Blue Assay (MABA), M. smegmatis; assay type: cell-based; settings: Mycolicibacterium smegmatis, read-out: M. smegmatis MIC
[11] = test system: M. aurum DSM 43999 (ATCC 23366); assay: Microplate Alamar Blue Assay (MABA), M. aurum; assay type: cell-based; settings: Mycolicibacterium aurum, read-out: M. aurum MIC
[12] = test system: Staphylococcus aureus subsp. aureus CCM 4223 (ATCC 29213); assay: Antibacterial microdilution broth (EUCAST), SA; assay type: cell-based; settings: Staphylococcus aureus
[13] = test system: Staphylococcus aureus subsp. aureus methicillin-resistant (MRSA) CCM 4750 (ATCC 43300); assay: Antibacterial microdilution broth (EUCAST), MRSA; assay type: cell-based; settings: Staphylococcus aureus
[14] = test system: Staphylococcus epidermidis CCM 4418 (ATCC 12228); assay: Antibacterial microdilution broth (EUCAST), SE; assay type: cell-based
[15] = test system: Enterococcus faecalis CCM 4224 (ATCC 29212); assay: Antibacterial microdilution broth (EUCAST), EF; assay type: cell-based; settings: Enterococcus faecalis
[16] = test system: Escherichia coli CCM 3954 (ATCC 25922); assay: Antibacterial microdilution broth (EUCAST), EC; assay type: cell-based; settings: Escherichia coli
[17] = test system: Acinetobacter baumannii DSM 30007 (ATCC 19606); assay: Antibacterial microdilution broth (EUCAST), ACI; assay type: cell-based; settings: Acinetobacter baumannii
[18] = test system: Pseudomonas aeruginosa CCM 3955 (ATCC 27853); assay: Antibacterial microdilution broth (EUCAST), PA; assay type: cell-based; settings: Pseudomonas aeruginosa
[19] = test system: HepG2 human hepatocellular carcinoma cells; assay: In vitro HepG2 cytotoxicity (CellTiter 96); settings: for pIC50: Homo sapiens, HepG2, 24 h, read-out: HepG2 IC50, 24 h incubation, * limit = highest evaluated concentration (precipitation in medium), ** over the 1000 µM limit
[20] = test system: Klebsiella pneumoniae CCM 4415 (ATCC 10031); assay: Antibacterial microdilution broth (EUCAST), KP; settings: for KP MIC: read after 24 h; for MIC: Klebsiella pneumoniae
[21] = internal quality control, 90% growth inhibition, 24 h, 530 nm, read-out: MIC, spectrophotometric detection*
[22] = internal quality control, no visible growth, 24 h, read-out: MIC, visual detection**
[23] = internal quality control, 90% growth inhibition, 48 h (moulds), 530 nm, read-out: MIC, spectrophotometric detection*
[24] = internal quality control, no visible growth, 48 h (moulds), read-out: MIC, visual detection**
[25] = read after 24 h, read-out: SA MIC
[26] = read after 24 h, read-out: MRSA MIC
[27] = read after 24 h, read-out: SE MIC
[28] = read after 24 h, read-out: EF MIC
[29] = read after 24 h, read-out: EC MIC
[30] = read after 24 h, read-out: ACI MIC
[31] = read after 24 h, read-out: PA MIC
[32] = read after 24 h, read-out: CA MIC
[33] = read after 24 h, read-out: CK MIC
[34] = read after 24 h, read-out: CP MIC
[35] = read after 24 h, read-out: CT MIC
[36] = read after 24 h, read-out: AF MIC
[37] = read after 24 h, read-out: AFla MIC
[38] = read after 24 h, read-out: LC MIC
[39] = internal quality control, 50% growth inhibition, 24 h, 530 nm, read-out: MIC, spectrophotometric detection***
[40] = internal quality control, 50% growth inhibition, 48 h (moulds), 530 nm, read-out: MIC, spectrophotometric detection***
[41] = internal quality control, 95% growth inhibition, 24 h, 530 nm, read-out: MIC, spectrophotometric detection
[42] = internal quality control, no visible growth, 24 h, read-out: MIC, visual detection

SMILES	MIC [9]	MIC ([10]; MABA, resazurin after 48 h)	MIC ([11]; MABA, resazurin after 72 h)	MIC [12, 25]	MIC [13, 26]	MIC [14, 27]	MIC [15, 28]	MIC [16, 29]	MIC [17, 30]	MIC [18, 31]	MIC [1, 32]	MIC [2, 33]	MIC [3, 34]	MIC [4, 35]	MIC [5, 36]	MIC [6, 37]	MIC [7, 38]	MIC ([8]; 72 h, read-out: TI MIC)	pIC50 [19]	KP MIC [20]	further results
C[C@@H]1[C@H](O)[C@@H](C)/C=C/C=C/C=C/C=C/C=C/C=C/C=C/[C@H](O[C@@H]2O[C@H](C)[C@@H](O)[C@H](N)[C@@H]2O)C[C@@H]2O[C@](O)(C[C@@H](O)C[C@@H](O)[C@H](O)CC[C@@H](O)C[C@@H](O)CC(=O)O[C@H]1C)C[C@H](O)[C@H]2C(=O)O [amphotericin B, reference compound]																					MIC [1, 21]: 0.5 µg/mL; MIC [1, 22]: 0.5 µg/mL; MIC [2, 21]: 0.5 µg/mL; MIC [2, 22]: 0.5 µg/mL; MIC [3, 21]: 0.5 µg/mL; MIC [3, 22]: 0.5 µg/mL; MIC [4, 21]: 1 µg/mL; MIC [4, 22]: 1 µg/mL; MIC [5, 23]: 1 µg/mL; MIC [5, 24]: 1 µg/mL; MIC [6, 23]: 4 µg/mL; MIC [6, 24]: 4 µg/mL; MIC [7, 23]: 0.125 µg/mL; MIC [7, 24]: 0.125 µg/mL; MIC [8, 23]: 1 µg/mL; MIC [8, 24]: 1 µg/mL
NC(=O)c1nccnc1NC(=O)C12CC3CC(CC(C3)C1)C2 [Compound 28]	31.2 µg/mL (≈ 104 µM)	125 µg/mL (≈ 416 µM)	125 µg/mL (≈ 416 µM)	> 500 µM	> 500 µM	> 500 µM	> 500 µM	> 500 µM	> 500 µM	> 500 µM	500 µM	500 µM	> 500 µM	> 500 µM	> 500 µM	> 500 µM	> 500 µM	125 µM	3.44	> 500 µM	
NC(=O)c1nccnc1NC(=O)c1ccccc1Cl [Compound 13]	≥ 500 µg/mL	≥ 500 µg/mL	≥ 500 µg/mL	> 500 µM	> 500 µM	> 500 µM	> 500 µM	> 500 µM	> 500 µM	> 500 µM	> 500 µM	> 500 µM	> 500 µM	> 500 µM	> 500 µM	> 500 µM	> 500 µM	> 500 µM	< 3.60	> 500 µM	
NC(=O)c1nccnc1NC(=O)c1ccccc1 [Compound 1]	250 µg/mL (≈ 1030 µM)	≥ 500 µg/mL	≥ 500 µg/mL	> 500 µM	> 500 µM	> 500 µM	> 500 µM	> 500 µM	> 500 µM	> 500 µM	> 500 µM	> 500 µM	> 500 µM	> 500 µM	> 500 µM	> 500 µM	> 500 µM	> 500 µM	< 3.60	> 500 µM	
C[C@@H](c1ncncc1F)[C@](O)(Cn1cncn1)c1ccc(F)cc1F [voriconazole, reference compound]																					MIC [1, 39]: 0.03 µg/mL; MIC [1, 22]: > 16 µg/mL; MIC [2, 39]: 0.25 µg/mL; MIC [2, 22]: > 16 µg/mL; MIC [3, 39]: 0.03 µg/mL; MIC [3, 22]: > 16 µg/mL; MIC [4, 39]: 0.0625 µg/mL; MIC [4, 22]: > 16 µg/mL; MIC [5, 40]: 0.25 µg/mL; MIC [5, 24]: 1 µg/mL; MIC [6, 40]: 1 µg/mL; MIC [6, 24]: > 16 µg/mL; MIC [7, 40]: > 16 µg/mL; MIC [7, 24]: > 16 µg/mL; MIC [8, 40]: > 16 µg/mL; MIC [8, 24]: > 16 µg/mL
CNC(C)C1CCC(N)C(OC2C(N)CC(N)C(OC3OCC(C)(O)C(NC)C3O)C2O)O1 (stereo not shown) [gentamicin, reference compound]																					MIC [12, 41]: 1 µg/mL; MIC [12, 42]: 0.5 µg/mL; MIC [13, 41]: > 8 µg/mL; MIC [13, 42]: > 8 µg/mL; MIC [14, 41]: 0.125 µg/mL; MIC [14, 42]: 0.125 µg/mL; MIC [15, 41]: > 8 µg/mL; MIC [15, 42]: > 8 µg/mL; MIC [16, 41]: 1 µg/mL; MIC [16, 42]: 1 µg/mL; MIC [17, 41]: 8 µg/mL; MIC [17, 42]: 8 µg/mL; MIC [18, 41]: 0.5 µg/mL; MIC [18, 42]: 0.5 µg/mL; MIC ([20]; 24 h, read-out: MIC, visual detection): 0.5 µg/mL (≈ 1.05 µM); MIC ([20]; ATCC10031|CCM4415, 24 h, read-out: MIC, spectrophotometric detection): 0.5 µg/mL (≈ 1.05 µM)
NC(=O)c1nccnc1NC(=O)c1cccc(Cl)c1 [Compound 14]	≥ 125 µg/mL			> 125 µM	> 125 µM	> 125 µM	> 125 µM	> 125 µM	> 125 µM	> 125 µM	> 125 µM	> 125 µM	> 125 µM	> 125 µM	> 125 µM	> 125 µM	> 125 µM	> 125 µM	< 4.60	> 125 µM	MIC ([10]; 48 h): ≥ 125 µg/mL; MIC ([11]; 72 h): ≥ 125 µg/mL; solubility in the testing medium (in words) ([19]; HepG2 cell culture medium): low solubility
O=C(NC1Cc2ccccc2C1)c1nccnc1NC(=O)C1CCCCC1 [Compound 38, reference compound]	62.5 µg/mL (≈ 171 µM)	≥ 500 µg/mL	≥ 500 µg/mL																4.71		
